Experimental data from patent publication US12077503B2, “Substituted cyclic amides and their use as herbicides” (FMC CORPORATION, priority 2015, dated 2024).

Experiments:
Assay type in all cases: in vivo
[1] = test system: barnyardgrass (Echinochloa crus-galli); assay: Test A preemergence; conditions: Echinochloa crus-galli, pre-emergence, 240 h, 0 to 100 scale (0 no effect, 100 complete control), read-out: Plant response rating, Barnyardgrass; for pest or weed control at 500 g/ha: 500 g ai/ha, preemergence; for pest or weed control at 125 g/ha: Preemergence, 125 g ai/ha
How it was run: (§1)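 Treatment is preemergence as a directed soil spray after planting, or postemergence at the one- to two-leaf stage, with test chemical in a non-phytotoxic solvent mixture plus surfactant. Plants stay in the greenhouse about 10 d before visual injury scoring on a 0 to 100 scale versus untreated controls.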

corn (Zea mays) [2] = assay: Test A preemergence; conditions: Zea mays, pre-emergence, 240 h, 0 to 100 scale (0 no effect, 100 complete control); for Corn plant response rating (crop injury, 0 = no effect, 100 = complete kill) at 500 g/ha: 500 g ai/ha, preemergence; for Corn plant response rating (crop injury, 0 = no effect, 100 = complete kill) at 125 g/ha: Preemergence, 125 g ai/ha
How it was run: as §1

[3] = test system: crabgrass, large (Digitaria sanguinalis); assay: Test A preemergence; conditions: Digitaria sanguinalis, pre-emergence, 240 h, 0 to 100 scale (0 no effect, 100 complete control), read-out: Plant response rating, Crabgrass, Large; for pest or weed control at 500 g/ha: 500 g ai/ha, preemergence; for pest or weed control at 125 g/ha: Preemergence, 125 g ai/ha
How it was run: as §1

[4] = test system: giant foxtail (Setaria faberii); assay: Test A preemergence; conditions: Setaria faberi, pre-emergence, 240 h, 0 to 100 scale (0 no effect, 100 complete control), read-out: Plant response rating, Foxtail, Giant; for pest or weed control at 500 g/ha: 500 g ai/ha, preemergence; for pest or weed control at 125 g/ha: Preemergence, 125 g ai/ha
How it was run: as §1

[5] = test system: morningglory (Ipomoea spp.); assay: Test A preemergence; conditions: Ipomoea, pre-emergence, 240 h, 0 to 100 scale (0 no effect, 100 complete control), read-out: Plant response rating, Morningglory; for pest or weed control at 500 g/ha: 500 g ai/ha, preemergence; for pest or weed control at 125 g/ha: Preemergence, 125 g ai/ha
How it was run: as §1

[6] = test system: pigweed (Amaranthus retroflexus); assay: Test A preemergence; conditions: Amaranthus retroflexus, pre-emergence, 240 h, 0 to 100 scale (0 no effect, 100 complete control), read-out: Plant response rating, Pigweed; for pest or weed control at 500 g/ha: 500 g ai/ha, preemergence; for pest or weed control at 125 g/ha: Preemergence, 125 g ai/ha
[7] = test system: velvetleaf (Abutilon theophrasti); assay: Test A preemergence; conditions: Abutilon theophrasti, pre-emergence, 240 h, 0 to 100 scale (0 no effect, 100 complete control), read-out: Plant response rating, Velvetleaf; for pest or weed control at 500 g/ha: 500 g ai/ha, preemergence; for pest or weed control at 125 g/ha: Preemergence, 125 g ai/ha
How it was run: as §1

[8] = test system: wheat (Triticum aestivum); assay: Test A preemergence; conditions: Triticum aestivum, pre-emergence, 240 h, 0 to 100 scale (0 no effect, 100 complete control), read-out: Plant response rating, Wheat; for plant injury at 500 g/ha: 500 g ai/ha, preemergence; for plant injury at 125 g/ha: Preemergence, 125 g ai/ha
How it was run: as §1

[9] = test system: barnyardgrass (Echinochloa crus-galli); assay: Test A postemergence; conditions: Echinochloa crus-galli, post-emergence, 240 h, Postemergence; for pest or weed control at 125 g/ha: 125 g ai/ha, visual rating about 10 d after treatment, read-out: Barnyardgrass plant response rating (0 to 100 scale, 0 no effect, 100 complete control); for pest or weed control at 500 g/ha: 500 g ai/ha, visual injury, 0 to 100 scale (0 no effect, 100 complete control), approx. 10 d, read-out: Plant response rating, Barnyardgrass
How it was run: as §1

corn (Zea mays) [10] = assay: Test A postemergence; conditions: Zea mays, post-emergence, 240 h, Postemergence; for plant injury at 125 g/ha: 125 g ai/ha, visual rating about 10 d after treatment, read-out: Corn plant response rating (0 to 100 scale); for Corn plant response rating (crop injury, 0 = no effect, 100 = complete kill) at 500 g/ha: 500 g ai/ha, visual injury, 0 to 100 scale (0 no effect, 100 complete control), approx. 10 d
How it was run: as §1

[11] = test system: crabgrass, large (Digitaria sanguinalis); assay: Test A postemergence; conditions: Digitaria sanguinalis, post-emergence, 240 h, Postemergence; for pest or weed control at 125 g/ha: 125 g ai/ha, visual rating about 10 d after treatment, read-out: Crabgrass, Large plant response rating (0 to 100 scale); for pest or weed control at 500 g/ha: 500 g ai/ha, visual injury, 0 to 100 scale (0 no effect, 100 complete control), approx. 10 d, read-out: Plant response rating, Crabgrass, Large
How it was run: as §1

[12] = test system: giant foxtail (Setaria faberii); assay: Test A postemergence; conditions: Setaria faberi, post-emergence, 240 h, Postemergence; for pest or weed control at 125 g/ha: 125 g ai/ha, visual rating about 10 d after treatment, read-out: Foxtail, Giant plant response rating (0 to 100 scale); for pest or weed control at 500 g/ha: 500 g ai/ha, visual injury, 0 to 100 scale (0 no effect, 100 complete control), approx. 10 d, read-out: Plant response rating, Foxtail, Giant
How it was run: as §1

[13] = test system: morningglory (Ipomoea spp.); assay: Test A postemergence; conditions: Ipomoea, post-emergence, 240 h, Postemergence; for pest or weed control at 125 g/ha: 125 g ai/ha, visual rating about 10 d after treatment, read-out: Morningglory plant response rating (0 to 100 scale); for pest or weed control at 500 g/ha: 500 g ai/ha, visual injury, 0 to 100 scale (0 no effect, 100 complete control), approx. 10 d, read-out: Plant response rating, Morningglory
How it was run: as §1

[14] = test system: pigweed (Amaranthus retroflexus); assay: Test A postemergence; conditions: Amaranthus retroflexus, post-emergence, 240 h, Postemergence; for pest or weed control at 125 g/ha: 125 g ai/ha, visual rating about 10 d after treatment, read-out: Pigweed plant response rating (0 to 100 scale); for pest or weed control at 500 g/ha: 500 g ai/ha, visual injury, 0 to 100 scale (0 no effect, 100 complete control), approx. 10 d, read-out: Plant response rating, Pigweed
How it was run: as §1

[15] = test system: velvetleaf (Abutilon theophrasti); assay: Test A postemergence; conditions: Abutilon theophrasti, post-emergence, 240 h, Postemergence; for pest or weed control at 125 g/ha: 125 g ai/ha, visual rating about 10 d after treatment, read-out: Velvetleaf plant response rating (0 to 100 scale); for pest or weed control at 500 g/ha: 500 g ai/ha, visual injury, 0 to 100 scale (0 no effect, 100 complete control), approx. 10 d, read-out: Plant response rating, Velvetleaf
How it was run: as §1

[16] = test system: wheat (Triticum aestivum); assay: Test A postemergence; conditions: Triticum aestivum, post-emergence, 240 h, Postemergence; for plant injury at 125 g/ha: 125 g ai/ha, visual rating about 10 d after treatment, read-out: Wheat plant response rating (0 to 100 scale); for plant injury at 500 g/ha: 500 g ai/ha, visual injury, 0 to 100 scale (0 no effect, 100 complete control), approx. 10 d, read-out: Plant response rating, Wheat
How it was run: as §1

CN1C[C@H](c2ccccc2)[C@](C)(C(=O)Nc2ccccc2F)C1=O (racemic) [Compound 1360]
0%: pest or weed control at 500 g/ha [1] | pest or weed control at 125 g/ha [1] | Corn plant response rating (crop injury, 0 = no effect, 100 = complete kill) at 500 g/ha (corn (Zea mays) [2]) | Corn plant response rating (crop injury, 0 = no effect, 100 = complete kill) at 125 g/ha (corn (Zea mays) [2]) | pest or weed control at 500 g/ha [3] | pest or weed control at 125 g/ha [3] | pest or weed control at 500 g/ha [4] | pest or weed control at 125 g/ha [4] | pest or weed control at 500 g/ha [5] | pest or weed control at 125 g/ha [5] | pest or weed control at 500 g/ha [6] | pest or weed control at 125 g/ha [6] | pest or weed control at 500 g/ha [7] | pest or weed control at 125 g/ha [7] | plant injury at 500 g/ha [8] | plant injury at 125 g/ha [8] | pest or weed control at 125 g/ha [9] | pest or weed control at 500 g/ha [9] | plant injury at 125 g/ha (corn (Zea mays) [10]) | Corn plant response rating (crop injury, 0 = no effect, 100 = complete kill) at 500 g/ha (corn (Zea mays) [10]) | pest or weed control at 125 g/ha [11] | pest or weed control at 500 g/ha [11] | pest or weed control at 125 g/ha [12] | pest or weed control at 500 g/ha [12] | pest or weed control at 125 g/ha [13] | pest or weed control at 500 g/ha [13] | pest or weed control at 125 g/ha [14] | pest or weed control at 500 g/ha [14] | pest or weed control at 125 g/ha [15] | pest or weed control at 500 g/ha [15] | plant injury at 125 g/ha [16] | plant injury at 500 g/ha [16]

O=C1NCC(c2c(Cl)cccc2Cl)C1C(=O)Nc1ccccc1F (stereo not shown) [Compound 1361]
0%: pest or weed control at 500 g/ha [1] | pest or weed control at 125 g/ha [1] | Corn plant response rating (crop injury, 0 = no effect, 100 = complete kill) at 500 g/ha (corn (Zea mays) [2]) | Corn plant response rating (crop injury, 0 = no effect, 100 = complete kill) at 125 g/ha (corn (Zea mays) [2]) | pest or weed control at 500 g/ha [3] | pest or weed control at 125 g/ha [3] | pest or weed control at 500 g/ha [4] | pest or weed control at 125 g/ha [4] | pest or weed control at 500 g/ha [5] | pest or weed control at 125 g/ha [5] | pest or weed control at 500 g/ha [6] | pest or weed control at 125 g/ha [6] | pest or weed control at 500 g/ha [7] | pest or weed control at 125 g/ha [7] | plant injury at 500 g/ha [8] | plant injury at 125 g/ha [8] | pest or weed control at 125 g/ha [9] | pest or weed control at 500 g/ha [9] | plant injury at 125 g/ha (corn (Zea mays) [10]) | Corn plant response rating (crop injury, 0 = no effect, 100 = complete kill) at 500 g/ha (corn (Zea mays) [10]) | pest or weed control at 125 g/ha [11] | pest or weed control at 500 g/ha [11] | pest or weed control at 125 g/ha [12] | pest or weed control at 500 g/ha [12] | pest or weed control at 125 g/ha [13] | pest or weed control at 500 g/ha [13] | pest or weed control at 125 g/ha [14] | pest or weed control at 500 g/ha [14] | pest or weed control at 125 g/ha [15] | pest or weed control at 500 g/ha [15] | plant injury at 125 g/ha [16] | plant injury at 500 g/ha [16]
